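A five-concentration, 48-hour dose response in 96-well plates underlies each endpoint, interpolated linearly between surrounding concentrations. At the GI50, growth is halved. Definition used: TGI = concentration required for complete inhibition of growth.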

Some test systems named below: DLD-1 colon; UACC-62 melanoma; HCT-116 colon; OVCAR-3 ovarian; A498 renal; SF-268 CNS; XF 498 CNS; SK-MEL-28 melanoma; DMS 114 small cell lung; TK-10 renal; M14 melanoma; LXFL 529 NSCLC.
Holding throughout (assay): growth of human tumour cells (NCI), 48 h

As to `CC1CC2=C(S(=O)(=O)c3ccccc3)CC(S(=O)(=O)c3ccccc3)(S(=O)(=O)c3ccccc3)CC21` (stereo not drawn), the TGI with DLD-1 colon, in the test on UACC-62 melanoma, in the test on HCT-116 colon, with OVCAR-3 ovarian, in the test with A498 renal and with SF-268 CNS was over 100 µM throughout. Moreover, the TGI in the test on XF 498 CNS, in the test with SK-MEL-28 melanoma, in the test with DMS 114 small cell lung, with TK-10 renal and in the test on M14 melanoma was over 100 µM each time.

As for `O=C1c2ccsc2C(=O)c2sc(CO)cc21`, the TGI was 0.326 µM with DLD-1 colon; 0.122 µM with UACC-62 melanoma; 0.279 µM with HCT-116 colon; 2.74 µM in the test with OVCAR-3 ovarian; 0.792 µM in the test on A498 renal; 2.31 µM in the test with SF-268 CNS. Moreover, the TGI was 1.14 µM in the test on XF 498 CNS; 0.0614 µM with SK-MEL-28 melanoma; 10.1 µM in the test on TK-10 renal; 0.304 µM with LXFL 529 NSCLC; under 0.0154 µM with M14 melanoma.

`C=C(C)[C@H]1Cc2c(ccc3c2O[C@@H]2COc4cc(OC)c(OC)cc4[C@@H]2C3=O)O1`: the TGI was over 100 µM in the test with DLD-1 colon; 44.7 µM in the test with UACC-62 melanoma; 23.5 µM with HCT-116 colon; 3.05 µM in the test with OVCAR-3 ovarian; 63.3 µM with A498 renal; 28.2 µM in the test with SF-268 CNS. The TGI in the test with XF 498 CNS is 0.302 µM; in the test on SK-MEL-28 melanoma, 81.4 µM; in the test on DMS 114 small cell lung it was 0.145 µM; in the test on TK-10 renal, 54.5 µM; in the test with LXFL 529 NSCLC it was 7.87 µM; in the test on M14 melanoma, 24.7 µM.

Consider `O=c1cc(-c2ccc(Oc3ccccc3)cc2)[nH]c2cc3c(cc12)OCO3`, for which the TGI with DLD-1 colon, in the test with UACC-62 melanoma, with HCT-116 colon, in the test with OVCAR-3 ovarian, in the test on A498 renal and in the test on SF-268 CNS was over 100 µM each time. For the same compound, the TGI in the test on XF 498 CNS, in the test on SK-MEL-28 melanoma, in the test with DMS 114 small cell lung, with TK-10 renal, in the test with LXFL 529 NSCLC and in the test on M14 melanoma was over 100 µM in each case.

`CCCCCCCCCCCC(=O)OCC(C[As](=O)(O)O)OC(=O)CCCCCCCCCCC` (stereo not drawn): the TGI in the test on DLD-1 colon is 31.3 µM; with UACC-62 melanoma it was 3.95 µM; in the test with HCT-116 colon, 18.3 µM; with OVCAR-3 ovarian it was 22.8 µM; in the test with A498 renal it was 17.7 µM; in the test on SF-268 CNS it was over 34.1 µM. Further, the TGI in the test on XF 498 CNS was 7.28 µM; in the test with SK-MEL-28 melanoma it was 10.1 µM; with DMS 114 small cell lung, 3.13 µM; with TK-10 renal, 30.6 µM; with LXFL 529 NSCLC, 5.21 µM; in the test on M14 melanoma, 4.48 µM.

As for `COc1ccc(S(=O)(=O)c2ccccc2[N+](=O)[O-])cc1`, the TGI in the test with DLD-1 colon, in the test with UACC-62 melanoma, in the test with HCT-116 colon, with OVCAR-3 ovarian, with A498 renal and in the test with SF-268 CNS was over 100 µM throughout. In addition, the TGI in the test with SK-MEL-28 melanoma, in the test with DMS 114 small cell lung, with TK-10 renal, in the test with LXFL 529 NSCLC and with M14 melanoma was over 100 µM in each case.

Take `COc1cc2cc3c4cc(OC)c(OC)cc4cc[n+]3c(C)c2cc1OC` (tested in a mixture with another compound): the TGI is over 100 µM with DLD-1 colon; over 100 µM in the test with UACC-62 melanoma; over 100 µM with HCT-116 colon; over 100 µM in the test on OVCAR-3 ovarian; over 100 µM with A498 renal; over 95 µM in the test on SF-268 CNS. The TGI with XF 498 CNS, in the test on SK-MEL-28 melanoma, with DMS 114 small cell lung, in the test with TK-10 renal, in the test with LXFL 529 NSCLC and in the test with M14 melanoma was over 100 µM each time.

Turning to `Nc1nc([O-])c2c(n1)[n+](C1OC(CO)C(O)C1O)cn2CCO` (stereo not drawn), the TGI with DLD-1 colon, in the test on UACC-62 melanoma, in the test with HCT-116 colon, in the test with OVCAR-3 ovarian, in the test with A498 renal and in the test on SF-268 CNS was over 100 µM throughout. For the same compound, the TGI with XF 498 CNS, with SK-MEL-28 melanoma, with DMS 114 small cell lung, in the test with TK-10 renal, in the test on LXFL 529 NSCLC and in the test with M14 melanoma was over 100 µM in each case.

In the case of `CN=C(SC)N(C)c1nc(=[N+](C)C)ss1`, the TGI in the test with UACC-62 melanoma, in the test with HCT-116 colon, with A498 renal, in the test with SF-268 CNS, in the test with XF 498 CNS and with SK-MEL-28 melanoma was over 100 µM each time. In addition, the TGI with TK-10 renal, in the test on LXFL 529 NSCLC and with M14 melanoma was over 100 µM throughout.

Regarding `CN(C)CC1CCCC(CN(C)C)C1OC(=O)c1ccccc1` (stereo not drawn), the TGI in the test with DLD-1 colon, in the test with UACC-62 melanoma, with HCT-116 colon, with OVCAR-3 ovarian, in the test with A498 renal and in the test on SF-268 CNS was over 100 µM each time. For the same compound, the TGI in the test with SK-MEL-28 melanoma, in the test on TK-10 renal, in the test on LXFL 529 NSCLC and in the test on M14 melanoma was over 100 µM in each case.

On to `C[Si](C)(C)OC1CC(=O)OC1n1cc(F)c(=O)[nH]c1=O` (stereo not drawn), for which the TGI in the test on DLD-1 colon was over 100 µM; with UACC-62 melanoma it was over 100 µM; in the test on HCT-116 colon it was over 69 µM; with OVCAR-3 ovarian, over 100 µM; in the test on A498 renal, over 100 µM; with SF-268 CNS, over 100 µM. Besides, the TGI with XF 498 CNS, in the test with SK-MEL-28 melanoma, with DMS 114 small cell lung, in the test on TK-10 renal, in the test with LXFL 529 NSCLC and in the test with M14 melanoma was over 100 µM each time.

As to `CCOC(=O)CNC(=O)N(CC)C12CC3CC(CC(C3)C1)C2`, the TGI came to 44.9 µM with DLD-1 colon; 218 µM in the test with UACC-62 melanoma; 297 µM with HCT-116 colon; 287 µM with OVCAR-3 ovarian; 274 µM with A498 renal; 317 µM in the test with SF-268 CNS. Besides, the results for the TGI in the test on XF 498 CNS, in the test with SK-MEL-28 melanoma and in the test on DMS 114 small cell lung were 342 µM, 560 µM and 274 µM, respectively.

As for `CCN(CC)C1CC(O[C@H]2C[C@](O)(C(=O)CO)Cc3c(O)c4c(c(O)c32)C(=O)c2c(OC)cccc2C4=O)OC(C)C1O` (stereo partly drawn), the TGI in the test on DLD-1 colon came to 0.26 µM; with UACC-62 melanoma, 0.0968 µM; with HCT-116 colon, 1.03 µM; with OVCAR-3 ovarian, 0.77 µM; in the test on A498 renal, 0.0798 µM; with SF-268 CNS, 0.314 µM. Besides, the TGI in the test on XF 498 CNS amounted to 0.223 µM; in the test with SK-MEL-28 melanoma, 0.216 µM; in the test on DMS 114 small cell lung, 0.274 µM; in the test on TK-10 renal it was 2.57 µM; in the test on LXFL 529 NSCLC it was 1.1 µM; in the test on M14 melanoma, 0.31 µM.

As for `CCOC(=O)c1cc2c3ccn(Cc4ccccc4)c3c3c(C)[nH]oc3c2n1`, the TGI with UACC-62 melanoma, in the test with HCT-116 colon, in the test with OVCAR-3 ovarian, with A498 renal, in the test with SF-268 CNS and in the test on SK-MEL-28 melanoma was over 100 µM each time. Also, the TGI in the test with TK-10 renal and with M14 melanoma was over 100 µM throughout.

For `COc1ccccc1CNCCCN1C(=O)c2ccc3c4c(ccc(c24)C1=O)C(=O)N(CCCNCCNCCCN)C3=O`, the GI50 in the test on UACC-62 melanoma was 1.68 µM; with HCT-116 colon, 0.717 µM; with OVCAR-3 ovarian, 2.16 µM; with A498 renal, 5.01 µM; in the test on SF-268 CNS it was 2.13 µM; in the test on SK-MEL-28 melanoma, 3.03 µM. Besides, the figures for the GI50 with TK-10 renal and in the test on M14 melanoma were 6.65 µM and 2.07 µM, respectively. Further, the TGI in the test on UACC-62 melanoma turned out to be 3.82 µM; in the test on HCT-116 colon, 3.04 µM; in the test with OVCAR-3 ovarian it was 5.65 µM; in the test on A498 renal, 20.1 µM; in the test with SF-268 CNS, 11.6 µM; with SK-MEL-28 melanoma, 9.66 µM. For the same compound, the TGI came out at 44.7 µM in the test with TK-10 renal and 4.49 µM in the test with M14 melanoma.

Turning to `C1=Cc2cc3c(c4nccc(c24)N1)OCO3`, the TGI is 32.2 µM with UACC-62 melanoma; 17 µM in the test on HCT-116 colon; over 100 µM with OVCAR-3 ovarian; over 85.1 µM with A498 renal; 28.9 µM in the test on SF-268 CNS; over 71 µM with SK-MEL-28 melanoma. Besides, the TGI in the test on TK-10 renal is over 80.1 µM; with M14 melanoma, 54.5 µM.

Turning to `CCC(=O)Oc1ccc2c(c1)c(=O)c1c(NCCCN(C)C)ccc3nnn2c31`, the TGI in the test on UACC-62 melanoma was determined as 23.5 µM; in the test on HCT-116 colon, 14.4 µM; with OVCAR-3 ovarian, 21 µM; in the test with A498 renal it was 18.3 µM; with SF-268 CNS, 17.2 µM; in the test on SK-MEL-28 melanoma it was 23.9 µM. The TGI in the test on TK-10 renal came to 15.5 µM; with M14 melanoma it was 20.1 µM.

As for `Cn1c([C@H](C#N)c2ncccc2[N+](=O)[O-])nc2ccccc21`, the TGI in the test on UACC-62 melanoma, in the test on HCT-116 colon, in the test on OVCAR-3 ovarian, in the test with A498 renal, in the test on SF-268 CNS and in the test with SK-MEL-28 melanoma was over 100 µM throughout. In addition, the TGI in the test with TK-10 renal and with M14 melanoma was over 100 µM in each case.

Values taken from PubChem BioAssay (NCI).
